Results: ChEMBL document CHEMBL5674860, “Optimized Dual-Glo Assay to identify co-culture-induced drug vulnerabilities in 3D CRC models” (2024)

What was measured:
Type in all cases: functional, Homo sapiens
Parameters in all cases: dose or concentration left out as unconfirmed
Colon cancer organoid [1] = assay: Optimized Dual-Glo assay to identify co-culture induced drug vulnerabilities using donated chemical probes and chemogenomics kinase set in O14 CRC organoid and F14 CAF mono and co-culture. […] Cell viability is reported both mono and co-culture models.
Colon cancer organoid [2] = assay: Optimized Dual-Glo assay to identify co-culture induced drug vulnerabilities using donated chemical probes and chemogenomics kinase set in O20 CRC organoid and F20 CAF mono and co-culture. […] Cell viability is reported both mono and co-culture models.
Colon cancer organoid [3] = assay: Optimized Dual-Glo assay to identify co-culture induced drug vulnerabilities using donated chemical probes and chemogenomics kinase set in O06 CRC organoid and F06 CAF mono and co-culture. […] Cell viability is reported both mono and co-culture models.
[4] = Culture type Co-Culture, Transduced with Lucferase2-P2A-EGFP lentivirus
[5] = Culture type Co-Culture, Transduced with Renilla-dsRed lentivirus
[6] = Culture type Mono-Culture, Transduced with Lucferase2-P2A-EGFP lentivirus
[7] = Culture type Mono-Culture, Transduced with Renilla-dsRed lentivirus

| SMILES | Cell Viability (Colon cancer organoid [1]; [4]) | Cell Viability (Colon cancer organoid [1]; [5]) | Cell Viability (Colon cancer organoid [1]; [6]) | Cell Viability (Colon cancer organoid [1]; [7]) | Cell Viability (Colon cancer organoid [2]; [4]) | Cell Viability (Colon cancer organoid [2]; [5]) | Cell Viability (Colon cancer organoid [2]; [6]) | Cell Viability (Colon cancer organoid [2]; [7]) | Cell Viability (Colon cancer organoid [3]; [4]) | Cell Viability (Colon cancer organoid [3]; [5]) | Cell Viability (Colon cancer organoid [3]; [6]) | Cell Viability (Colon cancer organoid [3]; [7]) |
| --- | --- | --- | --- | --- | --- | --- | --- | --- | --- | --- | --- | --- |
| Cc1sc2c(c1C)C(c1ccc(Cl)cc1)=N[C@@H](CC(=O)OC(C)(C)C)c1nnc(C)n1-2 | 21.0352% | 390.207% | 21.1376% | 218.603% | 11.0659% | 145.881% | 17.1066% | 37.2064% | 24.0633% | 301.325% | 25.9077% | 273.458% |
| COc1cc2c(cc1-c1c(C)noc1C)ncc1[nH]c(=O)n([C@H](C)c3ccccn3)c12 | 36.9013% | 317.138% | 43.8564% | 208.742% | 26.0295% | 172.215% | 25.6738% | 101.868% | 43.5488% | 325.273% | 54.5625% | 294.029% |
| CCCc1cc(C)[nH]c(=O)c1CNC(=O)c1cc(-c2ccnc(N3CCN(C)CC3)c2)cc2c1cnn2C(C)C | 90.4891% | 115.464% | 111.507% | 115.721% | 55.9892% | 146.305% | 86.0915% | 120.133% | 75.6598% | 125.188% | 109.33% | 104.205% |
| CN1CCN(c2ccc(-c3cccc(CN4CCOCC4)c3)cc2NC(=O)c2c[nH]c(=O)cc2C(F)(F)F)CC1 | 81.9859% | 136.534% | 110.455% | 90.7791% | 82.2903% | 116.555% | 112.073% | 84.4992% | 91.1397% | 122.014% | 99.8143% | 114.421% |
| CC(C)Oc1ccc(-c2c[nH]cc2CN(C)CCN)cc1 | 38.1359% | 167.261% | 29.2667% | 88.3814% | 47.7555% | 252.195% | 49.3092% | 91.7276% | 47.5822% | 178.793% | 30.9197% | 89.9891% |
| CNCCN1CCC(OCc2ccccc2)CC1 | 36.6993% | 161.59% | 58.8026% | 109.763% | 15.2188% | 211.667% | 16.3767% | 101.684% | 118.085% | 144.179% | 105.555% | 98.6528% |
| Cn1c(=O)[nH]c2cc(N3C(=O)c4cccc5c(CCCO)ccc(c45)C3=O)ccc21 | 89.1085% | 114.749% | 98.1543% | 99.5703% | 125.633% | 89.8045% | 109.771% | 112.055% | 115.119% | 110.623% | 83.0583% | 109.161% |
| CN(C)[C@H]1CN(C2CCc3cccc(F)c32)C[C@@H]1c1ccc(N2CCN(S(C)(=O)=O)CC2)cc1 (stereo partly drawn) | 85.2853% | 124.227% | 108.249% | 110.303% | 31.8041% | 145.189% | 62.1102% | 96.7919% | 82.1891% | 127.07% | 99.7479% | 137.803% |
| CC1(C)C(N)=Nc2cc(OCCCN3Cc4ccc(OCCc5cn(CC(=O)N6CCC(CCN7CCCC7)CC6)nn5)cc4C3)c(OCC3CC3)cc21 | 83.4014% | 129.005% | 107.567% | 119.85% | 94.7334% | 161.052% | 109.897% | 111.947% | 85.8179% | 109.54% | 61.6099% | 146.021% |
| COc1ccccc1-c1cc(N2CCN(C(=O)OC(C)(C)C)CC2)c(N)nn1 | 99.785% | 110.211% | 110.079% | 98.4172% | 122.85% | 160.936% | 122.916% | 117.085% | 99.4085% | 102.712% | 83.0998% | 116.6% |
| CN(C)C(=O)N1CC[C@H](NC2=Nc3cc(F)ccc3N(CC(F)F)c3ccc(Cl)cc32)C1 | 130.518% | 98.5664% | 108.387% | 90.4728% | 71.357% | 98.2431% | 112.934% | 109.328% | 158.864% | 159.783% | 102.875% | 125.077% |
| CCn1c(-c2nc3cc(C(=O)N4CCCC(N)C4)ccc3n2C)cc2ccccc21.Cl (stereo not drawn) | 85.5466% | 126.887% | 120.87% | 100.943% | 132.709% | 136.72% | 106.473% | 96.2054% | 115.054% | 117.733% | 118.281% | 112.415% |
| Cc1cc(CN)cc(C)c1-c1ncn(C)c1-c1ccnc2cc(F)ccc12.Cl | 87.6168% | 103.014% | 105.617% | 97.8671% | 143.957% | 87.6481% | 139.188% | 92.4746% | 105.057% | 123.721% | 137.219% | 129.63% |
| COc1cc(OC)cc(-c2noc(N3CCN(C)C4(CCN(c5ccccc5)CC4)C3)n2)c1 | 94.7889% | 110.973% | 95.4006% | 91.5093% | 90.0996% | 110.491% | 105.262% | 93.4153% | 67.7845% | 115.277% | 89.2845% | 104.733% |
